Experimental findings from ChEMBL document CHEMBL5523746, “Discovery of Novel Peptide Antagonists Targeting GPR55 for Liver Inflammation and Fibrosis” (2024) are described below.

Bridge positions count the residues as written; N and C are the ends. Peptide text beside a SMILES is read from it.

The test system of assay [1] is LX-2. Kind of assay: Anti-fibrotic activity in human LX2 cells assessed as reduction in COL1alpha expression by measuring relative inhibition rate measured after 24 hrs incubation by Western blot analysis relative to control. Type of assay: functional. The arrangement: concentration or dose not given beside the values. In general terms: In western blotting, separated proteins are transferred to a membrane and probed.

The subject of assay [2] is LX-2. Nature of the assay: Anti-fibrotic activity in human LX2 cells assessed as reduction in […] expression by measuring relative inhibition rate measured after 24 hrs incubation by Western blot analysis relative to control. The arrangement: concentration or dose not given beside the values. The format is functional.

Take `CC(C)C[C@@H]1NC(=O)[C@H]([C@@H](C)O)NC(=O)[C@@H]2CCCN2C(=O)[C@H](CO)NC(=O)[C@H](CC(N)=O)NC(=O)[C@H](CCCCN)NC(=O)[C@H](C)NC(=O)[C@@H](N)CSSC[C@@H](C(=O)O)NC1=O` (H-CAKNSPTLC-OH; disulfide 1-9): the Activity was found to be 90.3% in assay [1] and 76.4% in assay [2]. With `CC(C)C[C@@H]1NC(=O)[C@H]([C@@H](C)O)NC(=O)[C@@H]2CCCN2C(=O)[C@H](C)NC(=O)[C@H](CC(N)=O)NC(=O)[C@H](CCCCN)NC(=O)[C@H](CCCCN)NC(=O)[C@@H](N)CSSC[C@@H](C(=O)O)NC1=O` (H-CKKNAPTLC-OH; disulfide 1-9), the results for the Activity in assay [1] and in assay [2] were 99.4% and 74.5%, respectively. For the molecule `C[C@@H](O)[C@@H]1NC(=O)[C@@H]2CCCN2C(=O)[C@H](CO)NC(=O)[C@H](CC(N)=O)NC(=O)[C@H](CCCCN)NC(=O)[C@H](CCCCN)NC(=O)[C@@H](N)CSSC[C@@H](C(=O)O)NC(=O)[C@H](CCC(N)=O)NC1=O` (H-CKKNSPTQC-OH; disulfide 1-9), the Activity stood at 74.6% in assay [1] and 82.3% in assay [2]. The matching figures for `CC(C)C[C@@H]1NC(=O)[C@H]([C@@H](C)O)NC(=O)[C@@H]2CCCN2C(=O)[C@H]([C@@H](C)O)NC(=O)[C@H](CC(N)=O)NC(=O)[C@H](CCCCN)NC(=O)[C@H](CCCCN)NC(=O)[C@@H](N)CSSC[C@@H](C(=O)O)NC1=O` (H-CKKNTPTLC-OH; disulfide 1-9): 85.7% and 91.6%. The matching figures for `CC(C)C[C@@H]1NC(=O)[C@H](CCC(=O)O)NC(=O)[C@@H]2CCCN2C(=O)[C@H](CO)NC(=O)[C@H](CC(N)=O)NC(=O)[C@H](CCCCN)NC(=O)[C@H](CCCCN)NC(=O)[C@@H](N)CSSC[C@@H](C(=O)O)NC1=O` (H-CKKNSPELC-OH; disulfide 1-9): 59.2% and 82.9%. The matching figures for `C[C@@H](O)[C@@H]1NC(=O)[C@H]([C@@H](C)O)NC(=O)[C@@H]2CCCN2C(=O)[C@H](CO)NC(=O)[C@H](CC(N)=O)NC(=O)[C@H](CCCCN)NC(=O)[C@H](CCCCN)NC(=O)[C@@H](N)CSSC[C@@H](C(=O)O)NC1=O` (H-CKKNSPTTC-OH; disulfide 1-9): 66.1% and 84.9%. As for `CC(C)C[C@@H]1NC(=O)[C@H](CO)NC(=O)[C@@H]2CCCN2C(=O)[C@H](CO)NC(=O)[C@H](CC(N)=O)NC(=O)[C@H](CCCCN)NC(=O)[C@H](CCCCN)NC(=O)[C@@H](N)CSSC[C@@H](C(=O)O)NC1=O` (H-CKKNSPSLC-OH; disulfide 1-9), the Activity in assay [1] is given as 69.4%; in assay [2] it was 93.8%.

On to `CC(C)C[C@@H]1NC(=O)[C@H]([C@@H](C)O)NC(=O)[C@@H]2CCCN2C(=O)[C@H](CO)NC(=O)[C@H](C)NC(=O)[C@H](CCCCN)NC(=O)[C@H](CCCCN)NC(=O)[C@@H](N)CSSC[C@@H](C(=O)O)NC1=O` (H-CKKASPTLC-OH; disulfide 1-9), for which the Activity is reported as 132.9% in assay [1] and 87.7% in assay [2]. The matching figures for `CC(C)C[C@@H]1NC(=O)[C@H]([C@@H](C)O)NC(=O)[C@@H]2CCCN2C(=O)[C@H](CO)NC(=O)[C@H](CC(=O)O)NC(=O)[C@H](CCCCN)NC(=O)[C@H](CCCCN)NC(=O)[C@@H](N)CSSC[C@@H](C(=O)O)NC1=O` (H-CKKDSPTLC-OH; disulfide 1-9): 64.7% and 82.4%. The matching figures for `CC(C)C[C@@H]1NC(=O)[C@H]([C@@H](C)O)NC(=O)[C@@H]2CCCN2C(=O)[C@H](CO)NC(=O)[C@H](CC(N)=O)NC(=O)[C@H](C)NC(=O)[C@H](CCCCN)NC(=O)[C@@H](N)CSSC[C@@H](C(=O)O)NC1=O` (H-CKANSPTLC-OH; disulfide 1-9): 139.1% and 88.9%. In the case of `CC(C)C[C@@H]1NC(=O)[C@H](C)NC(=O)[C@@H]2CCCN2C(=O)[C@H](CO)NC(=O)[C@H](CC(N)=O)NC(=O)[C@H](CCCCN)NC(=O)[C@H](CCCCN)NC(=O)[C@@H](N)CSSC[C@@H](C(=O)O)NC1=O` (H-CKKNSPALC-OH; disulfide 1-9), the values for the Activity in assay [1] and in assay [2] were 79.7% and 61.2%, respectively. As to `C[C@@H]1NC(=O)[C@H]([C@@H](C)O)NC(=O)[C@@H]2CCCN2C(=O)[C@H](CO)NC(=O)[C@H](CC(N)=O)NC(=O)[C@H](CCCCN)NC(=O)[C@H](CCCCN)NC(=O)[C@@H](N)CSSC[C@@H](C(=O)O)NC1=O` (H-CKKNSPTAC-OH; disulfide 1-9), the Activity in assay [1] is on record as 74.1%. For `C[C@@H](O)[C@@H]1NC(=O)[C@@H]2CCCN2C(=O)[C@H](CO)NC(=O)[C@H](CC(N)=O)NC(=O)[C@H](CCCCN)NC(=O)[C@H](CCCCN)NC(=O)[C@@H](N)CSSC[C@@H](C(=O)O)NC(=O)[C@H](Cc2c[nH]cn2)NC1=O` (H-CKKNSPTHC-OH; disulfide 1-9), the Activity is reported as 62.6% in assay [1] and 71.5% in assay [2]. For `CC(C)C[C@@H]1NC(=O)[C@H]([C@@H](C)O)NC(=O)[C@H](C)NC(=O)[C@H](CO)NC(=O)[C@H](CC(N)=O)NC(=O)[C@H](CCCCN)NC(=O)[C@H](CCCCN)NC(=O)[C@@H](N)CSSC[C@@H](C(=O)O)NC1=O` (H-CKKNSATLC-OH; disulfide 1-9), the Activity is on record as 140.1% in assay [1] and 91.8% in assay [2]. `CC(C)C[C@@H]1NC(=O)[C@H](CO)NC(=O)[C@H](CC(N)=O)NC(=O)[C@H](CCCCN)NC(=O)[C@H](CCCCN)NC(=O)[C@@H](N)CSSC[C@@H](C(=O)O)NC(=O)[C@H](CC(C)C)NC(=O)[C@H]([C@@H](C)O)NC1=O` (H-CKKNSLTLC-OH; disulfide 1-9): the Activity in assay [1] was 66.1%; in assay [2] it was 68.9%.

With `CC(C)C[C@@H]1NC(=O)[C@H](CCCNC(=N)N)NC(=O)[C@@H]2CCCN2C(=O)[C@H](CO)NC(=O)[C@H](CC(N)=O)NC(=O)[C@H](CCCCN)NC(=O)[C@H](CCCCN)NC(=O)[C@@H](N)CSSC[C@@H](C(=O)O)NC1=O` (H-CKKNSPRLC-OH; disulfide 1-9), the values for the Activity in assay [1] and in assay [2] were 76.7% and 92.6%, respectively. The matching figures for `CC(C)C[C@@H]1NC(=O)[C@H]([C@@H](C)O)NC(=O)[C@@H]2CCCN2C(=O)[C@H](CO)NC(=O)[C@H](CC(N)=O)NC(=O)[C@H](CCCCN)NC(=O)[C@H](CCCCN)NC(=O)[C@@H](N)CSSC[C@@H](C(=O)O)NC1=O` (H-CKKNSPTLC-OH; disulfide 1-9): 57.5% and 66.4%.
